{"source": "paper PMC11044016", "about": "(Journal of the American Chemical Society, 2023)", "key": {"[1]": {"details": "terminal cytosine of 3TC; stated without experiment, no reference given; cited from earlier work"}, "[2]": {"details": "Balb/cJ mice, s.c. 75 mg/kg"}, "HBV": {"tested_on": "HBV", "assay": "Antiviral", "assay_type": "cell-based", "details": "Hepatitis B virus, HePAD38, read-out: IC50 (HBV DNA released from cells)"}}}
{"smiles": "Nc1ccn([C@H]2CS[C@@H](CO)O2)c(=O)n1", "note": "[3TC, 2’,3’-Dideoxy-3’-Thiacytidine]", "values": [{"measurement": "pKa", "setting": "[1]", "result": "around 7.2"}, {"measurement": "3TC plasma concentration after day 3", "setting": "[2]", "result": "no drug detectable"}, {"measurement": "IC50", "setting": "HBV", "result": 0.17, "unit": "µM"}]}
